Target: T1, catechol-O-methyltransferase (COMT) (Homo sapiens, UniProt P21964)
T1 construct: M51A variant) was expressed in HEK 293F cells
T1 sequence (P21964 52-271 limits assumed): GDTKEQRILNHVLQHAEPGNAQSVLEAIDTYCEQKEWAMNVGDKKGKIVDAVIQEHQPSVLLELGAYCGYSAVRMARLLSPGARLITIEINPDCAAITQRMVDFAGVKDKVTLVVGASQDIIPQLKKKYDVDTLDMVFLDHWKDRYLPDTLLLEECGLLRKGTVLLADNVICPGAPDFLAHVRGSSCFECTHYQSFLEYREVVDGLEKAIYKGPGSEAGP
Experiment: COMT inhibition assay (HTRF, production of S-adenosyl homocysteine)
Format: biochemical
Settings: recombinant human COMT, HTRF SAH production; MB-COMT or S-COMT not stated for Table 1
Procedure, shortened: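 SAH formed from SAM (20 μM) measured by HTRF with SAH standard curve; pIC50 from 4-parameter fit. MB-COMT (M51A, HEK293F membranes, 62 ng/well): 1.5 μM dopamine, 40 min, 37° C.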

Structure (SMILES) | Activity range (pIC50, COMT inhibition)
O=S(=O)(c1ccc(O)c2ncccc12)C1CCN(c2ccc(F)cc2)CC1 [Example 37, 5-[[1-(4-fluorophenyl)-4-piperidyl]sulfonyl]quinolin-8-ol] | ++ (a pIC50 of from about great than 6 to 7)
O=S(=O)(c1ccc(O)c2ncccc12)N1CCCCC1c1ccccc1 (stereo not drawn) [Example 61, 5-[(2-phenyl-1-piperidyl)sulfonyl]quinolin-8-ol] | ++ (a pIC50 of from about great than 6 to 7)
O=S(=O)(c1ccc(O)c2ncccc12)N1CCCC1 [Example 59, 5-pyrrolidin-1-ylsulfonylquinolin-8-ol] | +++ (a pIC50 of above about 7)
C[C@H](c1ccccc1)N(C)S(=O)(=O)c1cc(Br)c(O)c2ncccc12 [Example 120, 7-bromo-8-hydroxy-N-methyl-N-[(1R)-1-phenylethyl]quinoline-5-sulfonamide] | + (a pIC50 of from about 4.5 to 6)
CCN(CC)S(=O)(=O)c1ccc(O)c2ncccc12 [Example 68, N,N-diethyl-8-hydroxy-quinoline-5-sulfonamide] | ++ (a pIC50 of from about great than 6 to 7)
O=S(=O)(c1ccc(O)c2ncccc12)N1CCN(c2ccc(C(F)(F)F)cc2)CC1 [Example 94, 5-[4-[4-(trifluoromethyl)phenyl]piperazin-1-yl]sulfonylquinolin-8-ol] | ++ (a pIC50 of from about great than 6 to 7)
O=S(=O)(c1ccc(Cl)cc1)c1ccc(O)c2ncccc12 [Example 9, 5-(4-chlorophenyl)sulfonylquinolin-8-ol] | +++ (a pIC50 of above about 7)
Cc1cc(F)ccc1S(=O)(=O)c1ccc(O)c2ncccc12 [Example 20, 5-(4-fluoro-2-methyl-phenyl)sulfonylquinolin-8-ol] | +++ (a pIC50 of above about 7)
Cc1cccc(N2CCC(S(=O)(=O)c3ccc(O)c4ncccc34)CC2)c1C [Example 39, 5-[[1-(2,3-dimethylphenyl)-4-piperidyl]sulfonyl]quinolin-8-ol] | +++ (a pIC50 of above about 7)
Cc1cccc(S(=O)(=O)c2ccc(O)c3ncccc23)c1 [Example 7, 5-(m-tolylsulfonyl)quinolin-8-ol] | +++ (a pIC50 of above about 7)
O=S(=O)(c1cccc(-c2ccncc2)c1)c1ccc(O)c2ncccc12 [Example 23, 5-[3-(4-pyridyl)phenyl]sulfonylquinolin-8-ol] | +++ (a pIC50 of above about 7)
O=S(=O)(c1ccc(O)c2ncccc12)C1CCN(Cc2ccc(F)cc2)CC1 [Example 35, 5-[[1-[(4-fluorophenyl)methyl]-4-piperidyl]sulfonyl]quinolin-8-ol] | ++ (a pIC50 of from about great than 6 to 7)
O=S(=O)(c1ccc(O)c2ncccc12)N1CCNCC1 [Example 104, 5-piperazin-1-ylsulfonylquinolin-8-ol] | + (a pIC50 of from about 4.5 to 6)
O=S(=O)(c1cccc(-c2cccc3ncccc23)c1)c1ccc(O)c2ncccc12 [Example 25, 5-[3-(5-quinolyl)phenyl]sulfonylquinolin-8-ol] | +++ (a pIC50 of above about 7)
CN(Cc1cccc(Cl)c1)S(=O)(=O)c1ccc(O)c2ncccc12 [Example 53, N-[(3-chlorophenyl)methyl]-8-hydroxy-N-methyl-quinoline-5-sulfonamide] | +++ (a pIC50 of above about 7)
Cc1ccc(N(C)S(=O)(=O)c2ccc(O)c3ncccc23)cc1 [Example 46, 8-hydroxy-N-(4-methylphenyl)-N-methylquinoline-5-sulfonamide] | ++ (a pIC50 of from about great than 6 to 7)
O=S(=O)(c1ccc(O)c2ncccc12)N1CCN(c2ccc(Cl)cn2)CC1 [Example 69, 5-[4-(5-chloro-2-pyridyl)piperazin-1-yl]sulfonylquinolin-8-ol] | ++ (a pIC50 of from about great than 6 to 7)
O=S(=O)(c1cccnc1)c1ccc(O)c2ncccc12 [Example 19, 5-(3-pyridylsulfonyl)quinolin-8-ol] | ++ (a pIC50 of from about great than 6 to 7)
O=S(=O)(c1ccc(O)c2ncccc12)N1C[C@@H](F)[C@H](F)C1 [Example 70, 5-[(3R,4R)-3,4-difluoropyrrolidin-1-yl]sulfonylquinolin-8-ol] | +++ (a pIC50 of above about 7)
C[C@H](c1ccccc1)N(C)S(=O)(=O)c1cc(Cl)c(O)c2ncccc12 [Example 117, 7-chloro-8-hydroxy-N-methyl-N-[(1R)-1-phenylethyl]quinoline-5-sulfonamide] | ++ (a pIC50 of from about great than 6 to 7)
CN(Cc1ccc(F)cc1)S(=O)(=O)c1ccc(O)c2ncccc12 [Example 49, N-[(4-fluorophenyl)methyl]-8-hydroxy-N-methyl-quinoline-5-sulfonamide] | +++ (a pIC50 of above about 7)
O=S(=O)(c1ccc(O)c2ncccc12)N1CCN(C(c2ccc(F)cc2)c2ccc(F)cc2)CC1 [Example 95, 5-[4-[bis(4-fluorophenyl)methyl]piperazin-1-yl]sulfonylquinolin-8-ol] | + (a pIC50 of from about 4.5 to 6)
COc1cccc(CN(C)S(=O)(=O)c2ccc(O)c3ncccc23)c1 [Example 42, 8-hydroxy-N-[(3-methoxyphenyl)methyl]-N-methyl-quinoline-5-sulfonamide] | +++ (a pIC50 of above about 7)
O=C1NCN(c2ccccc2)C12CCN(S(=O)(=O)c1ccc(O)c3ncccc13)CC2 [Example 87, 8-[(8-hydroxy-5-quinolyl)sulfonyl]-1-phenyl-1,3,8-triazaspiro[4.5]decan-4-one] | +++ (a pIC50 of above about 7)
O=S(=O)(c1cc(F)c(O)c2ncccc12)N1CCN(Cc2ccc(F)cc2)CC1 [Example 122, 7-fluoro-5-[4-[(4-fluorophenyl)methyl]piperazin-1-yl]sulfonyl-quinolin-8-ol] | ++ (a pIC50 of from about great than 6 to 7)
O=S(=O)(c1ccc(F)cc1)c1ccc(O)c2ncccc12 [Example 2, 5-(4-fluorophenyl)sulfonylquinolin-8-ol] | +++ (a pIC50 of above about 7)
C[C@@H]1CCCN1S(=O)(=O)c1cc(Cl)c(O)c2ncccc12 [Example 119, 7-chloro-5-[(2R)-2-methylpyrrolidin-1-yl]sulfonyl-quinolin-8-ol] | ++ (a pIC50 of from about great than 6 to 7)
COc1ccc(S(=O)(=O)c2ccc(O)c3ncccc23)cc1 [Example 18, 5-(4-methoxyphenyl)sulfonylquinolin-8-ol] | +++ (a pIC50 of above about 7)
O=S(=O)(c1ccc(O)c2ncccc12)N1CCN(c2nsc3ccccc23)CC1 [Example 98, 5-[4-(1,2-benzothiazol-3-yl)piperazin-1-yl]sulfonylquinolin-8-ol] | ++ (a pIC50 of from about great than 6 to 7)
Cc1ccccc1C1CCCN1S(=O)(=O)c1ccc(O)c2ncccc12 (stereo not drawn) [Example 71, 5-[2-(o-tolyl)pyrrolidin-1-yl]sulfonylquinolin-8-ol] | +++ (a pIC50 of above about 7)

Reference: US10035799B2, “COMT inhibiting methods and compositions” (Lieber Institute for Brain Development, priority 2015, dated 2018)
